Data taken from patent US10881642B2, “Autophagy enhancer and use thereof” (Industry-Academic Cooperation Foundation, Yonsei University, priority 2016, dated 2021).

Tested on: HeLa cells
Assay: Acridine orange staining of acidic vesicular organelles
Format: cell-based
Settings: 24 hrs
Protocol: FIG. 3A is the graph showing the percentage of nuclear translocated TFEB for which TFEB-GFP HeLa cells were treated with MSL compound for 4 hrs and then nuclei of the cells were stained with DAPI. FIG. 3B is the results of the experiments in which HeLa cells were incubated in the presence of MSL compound or vehicle control for 24 hrs and then the acidic vesicular organelles formed were stained with acridine orange. FIG. 3C is the results of the experiments in which TFEB-GFP HeLa cells were treated with MSL compound or vehicle control for 4 hrs and then the cells were immunoblotted with the antibodies indicated. […]
Screening of autophagy enhancer. […] Firefly luciferase was determined after mixing 5 μl of lysate with 25 μl of Luciferase Assay Reagent II. Renilla luciferase was then determined after further addition of 20 ul of Stop&Glo Reagent. […] Cytotoxicity was determined by the measurement of LDH release in cell culture media using the LDH kit (Roche), according to the protocol from the manufacturer. […] Imaging and image quantification. […] Formation of acidic vesicular organelles was quantitated by staining the cells with acridine orange (Invitrogen, 5 ug/ml, 10 min). […] Cells or tissues were solubilized in lysis buffer supplemented with protease and phosphatase inhibitors and protein concentration was measured by the Bradford method. […] Protein levels were quantified by using ImageJ software analysis. […]

CSc1oc(-c2ccccc2)nc1S(=O)(=O)c1ccc(F)cc1 [MSL]
red fluorescence after acridine orange staining (lysosomal acidification and content): significantly increased
